Data as given in PubChem BioAssay AID2060603 (Molecular Pharmacology Branch, DTP, NCI, 2025).

Test system: 422866-222-R5-J1-PDC spheroid viability
Experiment: Anticancer human tumor 422866-222-R5-J1-PDC patient-derived pancreatic adenocarcinoma cell line growth inhibition [CLK]
Details: spheroids with HUVEC and MSC; for IC50: curve of first compound; for viability, T/C: stronger effect = lower value
Outline: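 Patient-derived tumor cells grown as complex spheroids with HUVEC endothelial cells and mesenchymal stem cells, treated with drug combinations. Concentrations descend in half-log steps from near clinical Cmax, or from 10 microM if Cmax unknown.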
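Further: spheroids exposed to agents for seven days before readout.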

CC(C)CC(NC(=O)C(Cc1ccccc1)NC(=O)c1cnccn1)B(O)O (centres undefined) + CN1CCN(c2cc(C(=O)Nc3cc4cc(-c5cnn(C)c5)ccc4cn3)ccn2)CC1
IC50 (second compound 0.0316 µM): 4.7 nM
IC50 (second compound 0.1 µM): 5.27 nM
IC50 (second compound 0.316 µM): 4.39 nM
IC50 (second compound 1 µM): < 0.949 nM
IC50 (second compound 3.16 µM): < 0.949 nM
IC50 (second compound 10 µM): < 0.949 nM
viability, T/C (second compound 0.0316 µM, first compound 0.000949 µM): 111%
viability, T/C (second compound 0.0316 µM, first compound 0.003 µM): 76.2%
viability, T/C (second compound 0.0316 µM, first compound 0.00949 µM): 8.95%
viability, T/C (second compound 0.0316 µM, first compound 0.03 µM): 1.59%
viability, T/C (second compound 0.0316 µM, first compound 0.0949 µM): 0.94%
viability, T/C (second compound 0.0316 µM, first compound 0.3 µM): 0.87%
viability, T/C (second compound 0.1 µM, first compound 0.000949 µM): 115%
viability, T/C (second compound 0.1 µM, first compound 0.003 µM): 89.7%
viability, T/C (second compound 0.1 µM, first compound 0.00949 µM): 8.61%
viability, T/C (second compound 0.1 µM, first compound 0.03 µM): 1.61%
viability, T/C (second compound 0.1 µM, first compound 0.0949 µM): 0.69%
viability, T/C (second compound 0.1 µM, first compound 0.3 µM): 3%
viability, T/C (second compound 0.316 µM, first compound 0.000949 µM): 112%
viability, T/C (second compound 0.316 µM, first compound 0.003 µM): 72.7%
viability, T/C (second compound 0.316 µM, first compound 0.00949 µM): 4.02%
viability, T/C (second compound 0.316 µM, first compound 0.03 µM): 0.92%
viability, T/C (second compound 0.316 µM, first compound 0.0949 µM): 0.7%
viability, T/C (second compound 0.316 µM, first compound 0.3 µM): 0.68%
viability, T/C (second compound 1 µM, first compound 0.000949 µM): 25.4%
viability, T/C (second compound 1 µM, first compound 0.003 µM): 4.84%
viability, T/C (second compound 1 µM, first compound 0.00949 µM): 1.06%
viability, T/C (second compound 1 µM, first compound 0.03 µM): 0.61%
viability, T/C (second compound 1 µM, first compound 0.0949 µM): 0.91%
viability, T/C (second compound 1 µM, first compound 0.3 µM): 2.12%
viability, T/C (second compound 3.16 µM, first compound 0.000949 µM): 9.95%
viability, T/C (second compound 3.16 µM, first compound 0.003 µM): 4.26%
viability, T/C (second compound 3.16 µM, first compound 0.00949 µM): 1.32%
viability, T/C (second compound 3.16 µM, first compound 0.03 µM): 0.91%
viability, T/C (second compound 3.16 µM, first compound 0.0949 µM): 1.14%
viability, T/C (second compound 3.16 µM, first compound 0.3 µM): 1.2%
viability, T/C (second compound 10 µM, first compound 0.000949 µM): 1.77%
viability, T/C (second compound 10 µM, first compound 0.003 µM): 0.99%
viability, T/C (second compound 10 µM, first compound 0.00949 µM): 1.54%
viability, T/C (second compound 10 µM, first compound 0.03 µM): 0.44%
viability, T/C (second compound 10 µM, first compound 0.0949 µM): 1.53%
viability, T/C (second compound 10 µM, first compound 0.3 µM): 0.46%

CC1COCCN1c1cc(C2(S(C)(=N)=O)CC2)nc(-c2ccnc3[nH]ccc23)n1 (centres undefined) + CN1CCN(c2cc(C(=O)Nc3cc4cc(-c5cnn(C)c5)ccc4cn3)ccn2)CC1
IC50 (second compound 0.0316 µM): > 10000 nM
IC50 (second compound 0.1 µM): > 10000 nM
IC50 (second compound 0.316 µM): > 10000 nM
IC50 (second compound 1 µM): < 31.6 nM
IC50 (second compound 3.16 µM): < 31.6 nM
IC50 (second compound 10 µM): < 31.6 nM
viability, T/C (second compound 0.0316 µM, first compound 0.0316 µM): 112%
viability, T/C (second compound 0.0316 µM, first compound 0.1 µM): 104%
viability, T/C (second compound 0.0316 µM, first compound 0.316 µM): 93.6%
viability, T/C (second compound 0.0316 µM, first compound 1 µM): 89.3%
viability, T/C (second compound 0.0316 µM, first compound 3.16 µM): 56%
viability, T/C (second compound 0.0316 µM, first compound 10 µM): 55.6%
viability, T/C (second compound 0.1 µM, first compound 0.0316 µM): 115%
viability, T/C (second compound 0.1 µM, first compound 0.1 µM): 95.7%
viability, T/C (second compound 0.1 µM, first compound 0.316 µM): 113%
viability, T/C (second compound 0.1 µM, first compound 1 µM): 74.3%
viability, T/C (second compound 0.1 µM, first compound 3.16 µM): 60.2%
viability, T/C (second compound 0.1 µM, first compound 10 µM): 61.2%
viability, T/C (second compound 0.316 µM, first compound 0.0316 µM): 95%
viability, T/C (second compound 0.316 µM, first compound 0.1 µM): 85.8%
viability, T/C (second compound 0.316 µM, first compound 0.316 µM): 79.9%
viability, T/C (second compound 0.316 µM, first compound 1 µM): 73.2%
viability, T/C (second compound 0.316 µM, first compound 3.16 µM): 61.2%
viability, T/C (second compound 0.316 µM, first compound 10 µM): 56.2%
viability, T/C (second compound 1 µM, first compound 0.0316 µM): 30.9%
viability, T/C (second compound 1 µM, first compound 0.1 µM): 26.6%
viability, T/C (second compound 1 µM, first compound 0.316 µM): 27.7%
viability, T/C (second compound 1 µM, first compound 1 µM): 21.6%
viability, T/C (second compound 1 µM, first compound 3.16 µM): 23.8%
viability, T/C (second compound 1 µM, first compound 10 µM): 17.5%
viability, T/C (second compound 3.16 µM, first compound 0.0316 µM): 10.7%
viability, T/C (second compound 3.16 µM, first compound 0.1 µM): 10.4%
viability, T/C (second compound 3.16 µM, first compound 0.316 µM): 11.6%
viability, T/C (second compound 3.16 µM, first compound 1 µM): 10.4%
viability, T/C (second compound 3.16 µM, first compound 3.16 µM): 10.6%
viability, T/C (second compound 3.16 µM, first compound 10 µM): 10.2%
viability, T/C (second compound 10 µM, first compound 0.0316 µM): 2.45%
viability, T/C (second compound 10 µM, first compound 0.1 µM): 2.21%
viability, T/C (second compound 10 µM, first compound 0.316 µM): 1.54%
viability, T/C (second compound 10 µM, first compound 1 µM): 2.27%
viability, T/C (second compound 10 µM, first compound 3.16 µM): 4.47%
viability, T/C (second compound 10 µM, first compound 10 µM): 2.46%
